Source: patent US11969396B2, “IPA-3-loaded liposomes and methods of use thereof” (University of Georgia Research Foundation, Inc., priority 2016, dated 2024)

Experiments:
[1] = free form (Rudolph et al. 2015); cited from earlier work
[2] = Body weight of tumor bearing mice; format: in vivo, athymic nude mice; conditions: 5 mg/kg i.p., 2 days/week; after 25 days
Protocol: (§1) All animal procedures listed in this article were performed as per the protocol approved by the Institutional Animal Care and Use Committee at the Charlie Norwood Veterans Affairs Medical Center, Augusta, GA (protocol #12-06-049). PC-3 cells were grown to 60-70% confluent in 225-ml flasks. Next, cells were collected and suspended in sterile normal saline. Cell suspension (3 million cells//mouse) was injected subcutaneously (SC) in 6-8-weeks-old male athymic nude mice (Harlan, Indianapolis, IN) (n=5-6). All the treatments (DMSO, empty liposomes, free IPA-3 (5 mg/Kg), and SSL-IPA-3 (5 mg/kg) were started on day 7 from tumor implantation, and were administered two times a week (i.p.). Tumor diameters were measured with digital calipers on day 7, 14, 21, and 25, and the tumor volume in mm^3 were calculated by the modified ellipsoidal formula (Tumor volume=½[length×width^2]). Average size of the tumors prior to the treatment with free IPA-3 and SSL-IPA-3 were 42 mm^3. Mice were sacrificed on day 25 and tumors were dissected, weighed, and snap-frozen for further immunohistochemistry analysis.

MDA-231 cells = assay: In vitro cytotoxicity, MTT staining; format: cell-based; conditions: Homo sapiens, MDA-MB-231
[3] = tested on: PC-3 cell tumor xenografts; conditions: daily administration (Al-Azayzih et al. 2015); cited from earlier work
PC-3 cells [4] = assay: Cell death by annexin V and PI staining, flow cytometry; format: cell-based, human; conditions: 48 hr, free IPA-3 20-30 μM
DU-145 cells = assay: In vitro cytotoxicity, MTT staining; format: cell-based, human
Protocol: (§2) The human prostate cancer cell lines PC-3, LNCaP and DU-145 and the breast cancer cell lines MCF-7 and MDA-231 were purchased from ATCC (Manassas, Va.). PC-3, LNCaP, and DU-145 cells were cultured in F12K, RPMI, and EMEM, respectively. MCF-7 and MDA-231 cells were cultured in RPMI. All culture media were supplemented with 10% FBS and 1% penicillin/streptomycin antibiotics (ATCC). All the cells were maintained at 37° C. in incubators with 5% CO2 and humidified atmosphere.
(§3) The cytotoxicity of the liposomal IPA-3 as well as the free IPA-3 was determined in three prostate cancer cell lines (PC-3, LNCaP, and DU-145) using the MTT assay (Twentyman, et al., Br J Cancer. 1987; 56: 279-85). Free IPA-3 and SSL-IPA-3 were used for comparison. Cells were seeded in 48-well tissue culture plates at 5×10^4 cells/ml and incubated at 37° C. in a 5% CO2 incubator for 24 hr. This time was sufficient for the cells to attach and resume their growth. Liposomes were diluted in the different culture media to their final concentrations and experiments were performed in triplicates. […] Plates were shaken for 15 min and absorbance was read at 590 nm using a Spectra Max M2 plate reader (BMG Lab Technologies, Inc., Durham, NC). […]

[5] = tested on: PC-3 cell prostate tumor xenografts; assay: TUNEL assay of apoptosis in tumor xenograft sections; format: in vivo, athymic nude mice; conditions: 5 mg/kg i.p., 2 days/week; day 25
Protocol: as §1
The TUNEL assay for in situ detection of apoptosis was performed using the ApopTag® Fluorescein in situ Apoptosis detection kit (Millipore, MA) as described previously8. Frozen sections taken from prostate tumor xenografts were fixed in 2% paraformaldehyde at 4° C. for 30 min. […]

PC-3 cells [6] = assay: In vitro cytotoxicity, MTT staining; format: cell-based; conditions: Homo sapiens
Protocol: as §2, §3

LNCaP cells = assay: In vitro cytotoxicity, MTT staining; format: cell-based; conditions: Homo sapiens
Protocol: as §2, §3

[7] = tested on: PC-3 cell tumor xenografts; assay: In vivo prostate tumor xenograft growth; design: species or system athymic nude mice; conditions: 5 mg/kg i.p., 2 days/week, from day 7 to day 25
Protocol: as §1

MCF-7 cells = assay: In vitro cytotoxicity, MTT staining; format: cell-based; conditions: Homo sapiens, MCF7
[8] = tested on: human prostate cancer cell lines PC-3, LNCaP and DU-145; assay: In vitro cytotoxicity, MTT staining, across the prostate cancer cell lines; format: cell-based
Protocol: as §2, §3

Oc1ccc2ccccc2c1SSc1c(O)ccc2ccccc12 [IPA-3, 1,1′-Dithiodi-2-naphthtol]
half-life in vivo [1]: very short half-life | effect on body weight of mice [2]: no significant effect | IC50 (MDA-231 cells): 8 µM | prostate tumor xenograft growth [3]: reduced prostate tumor xenograft growth | percent of cells staining positive for annexin V alone (PC-3 cells [4]): significantly increased | percent of cells staining positive for both annexin V and PI (PC-3 cells [4]): significantly increased | susceptibility of DU-145 cells compared to PC-3 and LNCaP cells (DU-145 cells): less susceptible | IC50 (DU-145 cells; Homo sapiens, DU-145, DU-145): ~32 µM | number of apoptotic (TUNEL positive) cells per field compared to control groups [5]: significant increases | IC50 (PC-3 cells [6]): 12 µM | IC50 (LNCaP cells): 10 µM | PC-3 cell tumor xenograft growth [7]: did not have a significant effect | IC50 (MCF-7 cells): 25 µM | IC50 ([8]; Homo sapiens, depending on the cell line, MTT staining): 10 to 35 µM | effect on MTT staining ([8]; concentrations of 5-30 μM, 24, 48, 72 hrs): concentration-and time-dependent decreases in MTT staining
